Experiment: in vitro
Details: human, hela cells, % viability

Structure (SMILES) | viability at 28.5 h, 10 µM
CCN(CC)C(=O)C1CCCN(C(=O)NCc2cnc(C)cn2)C1 (stereo not shown) [CBK156122] | 101%
CCN(CC)C(=O)C1CCCN(C(=O)NCCN2CCOCC2)C1 (stereo not shown) [CBK156128] | 96.1%
CCN(CC)C(=O)C1CCCN(C(=O)NCCOC)C1 (stereo not shown) [CBK156129] | 99.2%
CCN(CC)C(=O)C1CCCN(C(=O)NCc2cc(OC)c(OC)c(OC)c2)C1 (stereo not shown) [CBK156130] | 86.8%
CCN(CC)C(=O)C1CCCN(C(=O)Nc2ccc(N(CC)CC)cc2)C1 (stereo not shown) [CBK156139] | 94.4%
CCN(CC)C(=O)C1CCCN(C(=O)NC2CCc3ccccc32)C1 (stereo not shown) [CBK156156] | 92.2%
CCN(CC)C(=O)C1CCCN(C(=O)Nc2cccnc2)C1 (stereo not shown) [CBK156157] | 96.8%
Cc1cc(CNC(=O)N2CCCCC2CO)no1 (stereo not shown) [CBK156160] | 108%
O=C(NCC1COc2ccccc2O1)N1CCCCC1CO (stereo not shown) [CBK156162] | 103%
CSCCCNC(=O)N1CCCCC1CO (stereo not shown) [CBK156163] | 108%
O=C(NCc1ccc(Cl)c(Cl)c1)N1CCCCC1CO (stereo not shown) [CBK156164] | 113%
O=C(NCc1cccc(C(F)(F)F)c1)N1CCCCC1CO (stereo not shown) [CBK156165] | 90.7%
O=C(NCc1cccc2ccccc12)N1CCCCC1CO (stereo not shown) [CBK156167] | 99.7%
O=C(Nc1ccc(Cl)cc1)N1CCCCC1CO (stereo not shown) [CBK156179] | 99.5%
CC(=O)Nc1cccc(NC(=O)N2CCCCC2CO)c1 (stereo not shown) [CBK156181] | 101%
CCc1ccc(CNC(=O)Cn2nnc(-c3ccc(CN4CCC(C)CC4)nc3SC)n2)cc1 [CBK156205T] | 90.3%
CN1CCC(N2CCN(C(=O)c3ccc(-c4ccc(OC(F)(F)F)cc4)nc3)CC2)CC1 [CBK156206] | 92.8%
O=C(NCC1COc2ccccc2O1)c1ccc(-c2ccc(OC(F)(F)F)cc2)nc1 (stereo not shown) [CBK156214] | 88.3%
CSCCCNC(=O)c1ccc(-c2ccc(OC(F)(F)F)cc2)nc1 [CBK156216] | 95%
NS(=O)(=O)c1ccc(CNC(=O)c2ccc(-c3ccc(OC(F)(F)F)cc3)nc2)cc1 [CBK156246] | 84.1%
N#Cc1ccc(CNC(=O)c2ccc(-c3ccc(OC(F)(F)F)cc3)nc2)cc1 [CBK156249] | 87.2%
Cc1cc(Cl)ccc1CNC(=O)c1ccc(-c2ccoc2)nc1 [CBK156254] | 101%

Structure (SMILES) | viability at 28.5 h, 10 µM
CSCCCNC(=O)c1ccc(-c2ccoc2)nc1 [CBK156262] | 99%
O=C(NCc1cccs1)c1ccc(-c2ccoc2)nc1 [CBK156269] | 106%
O=C(NCc1cccnc1)c1ccc(-c2ccoc2)nc1 [CBK156275] | 89.6%
CN1CCN(C(=O)c2ccc(-c3ccoc3)nc2)CC1 [CBK156280] | 100%
CC(C)c1ccc(CNC(=O)c2ccc(-c3ccoc3)nc2)cc1 [CBK156292] | 91.4%
CN(C)S(=O)(=O)Nc1ccc(-c2nnn[nH]2)cc1 [CBK156312] | 96.2%
CN(C)S(=O)(=O)Nc1ccc2[nH]ccc2c1 [CBK156321] | 92.2%
O=S(=O)(Nc1ccc2[nH]ccc2c1)c1c(Cl)cc(C(F)(F)F)cc1Cl [CBK156328] | 75.5%
CCOC(=O)CCCNC(=O)N1CCCC(CO)C1 (stereo not shown) [CBK156344] | 102%
CN1CCN(CCCNC(=O)N(CCC#N)C2CCCCC2)CC1 [CBK156346] | 112%
Cc1cnc(CNC(=O)N(CCC#N)C2CCCCC2)cn1 [CBK156352] | 96.5%
N#CCCN(C(=O)NCc1cccc2ccccc12)C1CCCCC1 [CBK156353] | 89%
N#CCCN(C(=O)NCc1cccnc1)C1CCCCC1 [CBK156355] | 104%
N#CCCN(C(=O)NCCN1CCOCC1)C1CCCCC1 [CBK156357] | 107%
COc1cc(CNC(=O)N(CCC#N)C2CCCCC2)cc(OC)c1OC [CBK156359] | 98.1%
N#CCCN(C(=O)Nc1ccc2[nH]ccc2c1)C1CCCCC1 [CBK156362] | 97.9%
N#CCCN(C(=O)Nc1ccccc1Cl)C1CCCCC1 [CBK156366] | 86.8%
CC(=O)Nc1cccc(NC(=O)N(CCC#N)C2CCCCC2)c1 [CBK156367] | 91.9%
N#CCCN(C(=O)NCc1c(Cl)cccc1Cl)C1CCCCC1 [CBK156371] | 88%
N#CCCN(C(=O)NCCOc1ccccc1)C1CCCCC1 [CBK156374] | 94.9%
COc1ccc(CCNC(=O)N(CCC#N)C2CCCCC2)cc1 [CBK156375] | 100%
CCN(CC)CCCNC(=O)N(CCC#N)C1CCCCC1 [CBK156377] | 95%

Structure (SMILES) | viability at 28.5 h, 10 µM
COc1cc(NC(=O)N(CCC#N)C2CCCCC2)cc(OC)c1OC [CBK156380] | 94.4%
Cc1ccc(NC(=O)N(CCC#N)C2CCCCC2)cc1 [CBK156381] | 106%
CC(NC(=O)N(CCC#N)C1CCCCC1)c1ccccc1 (stereo not shown) [CBK156382] | 97.2%
N#CCCN(C(=O)NC1CCc2ccccc21)C1CCCCC1 (stereo not shown) [CBK156383] | 95.5%
CN1CCN(CCCNC(=O)N2CCN(c3ccc(F)cc3)CC2)CC1 [CBK156386] | 91.2%
O=C(NCC1COc2ccccc2O1)N1CCN(c2ccc(F)cc2)CC1 (stereo not shown) [CBK156387] | 92.8%
O=C(NCC1CCCCC1)N1CCN(c2ccc(F)cc2)CC1 [CBK156397] | 86.9%
O=C(NCC(c1ccccc1)c1ccccc1)N1CCN(c2ccc(F)cc2)CC1 [CBK156415] | 97%
O=C(NCCOc1ccccc1)N1CCN(c2ccc(F)cc2)CC1 [CBK156416] | 92.7%
CCN(CC)CCCNC(=O)N1CCN(c2ccc(F)cc2)CC1 [CBK156419] | 88.6%
CSCCCNC(=O)N1CCN(c2cc(C(F)(F)F)ccn2)CC1 [CBK156433] | 92.3%
O=C(NCc1cccc(C(F)(F)F)c1)N1CCN(c2cc(C(F)(F)F)ccn2)CC1 [CBK156435] | 102%
COCC(=O)N1CCC2(CC1)CC(=O)c1cc(Cl)cc(Cl)c1O2 [CBK156440] | 84.1%
O=C1CC2(CCN(C(=O)c3ccccn3)CC2)Oc2ccc(Br)cc21 [CBK156443] | 93.7%
CC(=O)NCC(=O)N1CCC2(CC1)CC(=O)c1cc(Br)ccc1O2 [CBK156447] | 106%
COc1ccc2c(c1)OC1(CCN(C(=O)c3ccc(C(C)=O)cc3)CC1)CC2=O [CBK156457] | 94.2%
O=C1NCC(C(=O)N2CCC3(CC2)CC(=O)c2cc(Br)ccc2O3)N1 (stereo not shown) [CBK156475] | 87.7%
O=C1NC(=O)C(CC(=O)N2CCC3(CC2)CC(=O)c2cc(Cl)ccc2O3)N1 (stereo not shown) [CBK156485] | 107%
CCCCC(=O)N1CCC2(CC1)CC(=O)c1ccc(OCc3ccccc3)c(C)c1O2 [CBK156493] | 104%
Cc1cnc(C(=O)N2CCC3(CC2)CC(=O)c2cc(Cl)cc(Cl)c2O3)cn1 [CBK156502] | 89.7%
Cc1noc(C)c1C(=O)N1CCC2(CC1)CC(=O)c1ccc(OCc3ccccc3)c(C)c1O2 [CBK156506] | 97.4%
O=C1CC2(CCN(C(=O)C3CCOC3)CC2)Oc2c(Br)cc(Br)cc21 (stereo not shown) [CBK156512] | 96.4%

Structure (SMILES) | viability at 28.5 h, 10 µM
CC(OC(=O)c1ccc2c(c1)C(=O)N(c1ccc(Cl)cc1)C2=O)C(=O)c1ccccc1 (stereo not shown) [CBK156661] | 111%
COc1ccccc1OCC(=O)N1CCC2(CCNC2)C1 (stereo not shown) [CBK156703C] | 99.6%
O=C(c1ccc2[nH]c(=O)[nH]c2c1)N1CCC2(CCNC2)C1 (stereo not shown) [CBK156747C] | 101%
CCCCCCOC(=O)c1ccc2c(c1)C(=O)N(c1cccc(N)c1)C2=O [CBK157034] | 106%
O=C(Nc1ncc(-c2ccccc2)s1)c1cccc([N+](=O)[O-])c1 [CBK157055] | 92.7%
CC(OC(=O)c1ccc2c(c1)C(=O)N(c1ccc([N+](=O)[O-])cc1)C2=O)C(=O)c1ccccc1 (stereo not shown) [CBK157061] | 94.3%
COc1cccc(C(=O)N2CCN(S(=O)(=O)c3ccc([N+](=O)[O-])cc3)CC2)c1 [CBK157533] | 96.9%
O=[N+]([O-])c1ccc(N2CCN(S(=O)(=O)c3ccc4ccccc4c3)CC2)cc1 [CBK157773] | 93.6%
CN1CCN(CCCNC(=O)c2ccc(-c3ccc(C(=O)N(C)C)cc3)nc2)CC1 [CBK158343] | 95%
CC1CCN(Cc2ccc(-c3ccc(CC(=O)NCCc4ccc(O)cc4)cn3)cc2)CC1 [CBK158384] | 91.9%
CC1CCN(Cc2ccc(-c3ccc(CC(=O)NCc4ccc(C#N)cc4)cn3)cc2)CC1 [CBK158409] | 93.8%
O=C(c1ccc(-c2cncc(-c3cc4ccccc4[nH]3)c2)cc1)N1CCOCC1 [CBK158419T] | 76.1%
Nc1ncc(-c2ccc(C(=O)N3CCOCC3)cc2)cc1C(=O)NCc1c(F)cccc1F [CBK158569] | 80.6%
CN(C)CC(C)(C)CNC(=O)c1cc(-c2ccc(C(=O)N3CCOCC3)cc2)cnc1N [CBK158574] | 80.2%
Nc1ncc(-c2ccc(C(=O)N3CCOCC3)cc2)cc1C(=O)NCCc1ccc(O)cc1 [CBK158577] | 92.5%
CN1CCN(C(=O)c2cc(-c3ccc(C(=O)N4CCOCC4)cc3)cnc2N)CC1 [CBK158584] | 85.6%
Nc1ncc(-c2ccc(C(=O)N3CCOCC3)cc2)cc1C(=O)NCc1ccc(S(N)(=O)=O)cc1 [CBK158597] | 105%
CS(=O)(=O)c1ccc(CNC(=O)c2cc(-c3ccc(C(=O)N4CCOCC4)cc3)cnc2N)cc1 [CBK158599] | 93%
CSCCCNC(=O)c1cncc(-c2ccc(C(=O)N3CCOCC3)cc2)c1 [CBK158610] | 92.7%
O=C(NCc1ccc(Cl)c(Cl)c1)c1cncc(-c2ccc(C(=O)N3CCOCC3)cc2)c1 [CBK158612] | 98.2%
O=C(NCc1ccc2c(c1)OCO2)c1cncc(-c2ccc(C(=O)N3CCOCC3)cc2)c1 [CBK158614] | 108%
O=C(NCCc1ccc(O)cc1)c1cncc(-c2ccc(C(=O)N3CCOCC3)cc2)c1 [CBK158620] | 112%

Reference: publication PMC12040169 (PLOS Biology, 2025)
